What was measured:
PPARγ Y473A = target: T1, PPARγ Y473A (Homo sapiens, UniProt P37231, Y501A); assay: Y473A assay (PPARγ reporter gene assay with Tyr473 of pBIND-PPARγ-LBD mutated into alanine); assay type: cell-based
T1 construct: expressed in transfected cells; host or cells: HEK293T
T1 sequence (P37231 172-476 isoform P37231-2 Y473A): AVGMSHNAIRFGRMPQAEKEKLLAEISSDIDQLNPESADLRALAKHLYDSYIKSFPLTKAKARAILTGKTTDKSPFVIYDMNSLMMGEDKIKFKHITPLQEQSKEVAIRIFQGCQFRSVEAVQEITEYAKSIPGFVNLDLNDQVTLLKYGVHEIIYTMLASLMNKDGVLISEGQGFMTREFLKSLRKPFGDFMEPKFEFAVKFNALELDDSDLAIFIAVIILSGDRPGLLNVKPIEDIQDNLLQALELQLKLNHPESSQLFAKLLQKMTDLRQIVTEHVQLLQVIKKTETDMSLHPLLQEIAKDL
Description: All chemicals were purchased from Sigma-Aldrich (St. Louis, MO, USA). All medium and serum were obtained from Gibco (Invitrogen). The wild-type gene of human PPARγ-LBD (amino acids 172–476) was obtained by PCR and cloned into pBIND vector (Promega). Mutations in pBIND-PPARγ-LBD were created by site-directed mutagenesis using the Fast Mutagenesis System (TransGen Biotech, Beijing, China).
(§1) The determination of nuclear receptor activation was performed as previously. Briefly, HEK293T cells were transfected with GAL4-pGL4-luc reporter plasmid and pBIND-PPARγ-LBD expression plasmid using Lipofectamine 2000 (Invitrogen) for 6 h before treatment with compounds for 20–24 h. Activity was determined by the Luciferase Assay System (Promega).
Supplementary Figure 1: Workflow of virtual screening and the procedure used for selecting hits whose bioactivity was experimentally tested. We developed a virtual screening workflow by Discovery Studio 4.0 software to identify selective agonists of PPARγ. The key steps of this workflow is the two pharmacophore models. One is the antipharmacophore model which excludes compounds whose structure are similar to known full agonists, the other one is the pharmacophore model which identifies selective agonists. Biological assays were performed after virtual steps to further screen leads. […]

LXRα = target: T2, LXRα (Homo sapiens, UniProt Q13133); assay: Receptor-specific transactivation, GAL4-LBD reporter in HEK293T cells; assay type: cell-based; conditions: 30 μM F12016
T2 construct: expressed in transfected cells; host or cells: HEK293T
T2 sequence (Q13133 209-447 limits assumed): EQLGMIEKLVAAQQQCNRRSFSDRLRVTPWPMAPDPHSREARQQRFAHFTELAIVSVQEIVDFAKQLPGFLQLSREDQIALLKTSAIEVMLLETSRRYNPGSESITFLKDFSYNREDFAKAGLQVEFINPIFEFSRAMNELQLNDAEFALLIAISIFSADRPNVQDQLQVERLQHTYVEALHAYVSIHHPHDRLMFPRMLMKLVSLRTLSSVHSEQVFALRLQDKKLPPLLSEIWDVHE
Description: (§2) HEK293T cells were cotransfected with a GAL4-pGL4-luc reporter and plasmids encoding various nuclear receptor LBDs fused with the GAL4 DNA-binding domain. […] LXR, liver X receptor; RXR, retinoid X receptor.
as §1

PPARα = target: T3, PPARα (Homo sapiens, UniProt Q07869); assay: as above; assay type: cell-based; conditions: 30 μM F12016
T3 construct: expressed in transfected cells; host or cells: HEK293T
T3 sequence (Q07869 239-466 limits assumed): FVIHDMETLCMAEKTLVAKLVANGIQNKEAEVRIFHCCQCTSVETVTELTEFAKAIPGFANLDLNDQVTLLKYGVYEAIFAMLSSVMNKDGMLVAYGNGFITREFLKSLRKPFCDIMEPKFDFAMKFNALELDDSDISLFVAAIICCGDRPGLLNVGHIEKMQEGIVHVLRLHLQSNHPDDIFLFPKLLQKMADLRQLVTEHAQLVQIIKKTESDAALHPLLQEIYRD
Description: as §2, §1

RXR = assay: as above; assay type: cell-based; conditions: 30 μM F12016
Description: as §2, §1

3T3-L1 preadipocytes = assay: Adipogenic differentiation of 3T3-L1 preadipocytes (Oil red O, triglyceride content); assay type: cell-based, mouse
Description: (§3) 3T3-L1 preadipocytes were grown to confluency in DMEM containing 10% CS. At 2 days post-confluency, the cells were stimulated with differentiation medium (DMEM containing 10% FBS, 10 μg/mL insulin, 1 μM dexamethasone, and 0.5 mM IBMX) for 48 h. Then, the cells were exposed in post-differentiation-maintaining medium (DMEM containing 10% FBS and 10 μg/mL insulin) for a further 48 h, which was replaced with expansion medium (DMEM containing 10% FBS) every 2 days after then. Compounds were added to the post-differentiation and expansion medium. At day 4, the cells were harvested for RNA preparation. At Day 8, the cells were fixed with 10% formaldehyde and stained with Oil red O solution. After washing with water, photos were taken. Solubilized dye was quantified at 550 nm. In addition, total triglyceride of the cells was measured by a total TG measurement kit (Applygene, China). Experiments were performed at least three times.

[1] = system: PPARγ target genes in differentiating 3T3-L1 cells; assay: Expression of adipogenesis-related and PPARγ-responsive genes in differentiating 3T3-L1 adipocytes (qPCR); assay type: cell-based, mouse
Description: as §3
Total RNA was extracted using TRIzol reagent (Invitrogen). First-strand cDNA was synthesized from the total RNA using a reverse transcriptional kit (TransGen). Quantitative PCR with SYBR Green (Roche Diagnostics, Lewes, UK) was performed on a Stratagene MX3000P real-time PCR system (Agilent). Melting curves were obtained, and the specificity of PCR products was checked on agarose gels. Relative mRNA expression was determined by the ΔΔCt method and normalized to GAPDH mRNA levels.

[2] = target: T4, CDK5 (substrate Rb protein) (Homo sapiens, UniProt Q00535); assay: In vitro CDK5-mediated phosphorylation of Rb protein; assay type: biochemical
T4 construct: purchased Millipore

PPARγ LBD mutants = assay type: cell-based, human; conditions: compared with wild-type PPARγ LBD
Description: All chemicals were purchased from Sigma-Aldrich (St. Louis, MO, USA). All medium and serum were obtained from Gibco (Invitrogen). […] Mutations in pBIND-PPARγ-LBD were created by site-directed mutagenesis using the Fast Mutagenesis System (TransGen Biotech, Beijing, China).
as §1

T4 sequence (Q00535 whole entry): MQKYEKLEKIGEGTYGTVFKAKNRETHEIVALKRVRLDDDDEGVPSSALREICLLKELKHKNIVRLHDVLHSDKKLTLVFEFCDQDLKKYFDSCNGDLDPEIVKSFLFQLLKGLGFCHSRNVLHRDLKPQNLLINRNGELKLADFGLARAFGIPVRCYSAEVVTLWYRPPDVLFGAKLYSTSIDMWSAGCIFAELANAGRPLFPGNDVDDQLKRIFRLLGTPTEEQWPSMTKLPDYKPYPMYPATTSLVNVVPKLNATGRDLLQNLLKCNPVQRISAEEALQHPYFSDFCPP
T4 sequence (Q15078 99-307 partner limits assumed): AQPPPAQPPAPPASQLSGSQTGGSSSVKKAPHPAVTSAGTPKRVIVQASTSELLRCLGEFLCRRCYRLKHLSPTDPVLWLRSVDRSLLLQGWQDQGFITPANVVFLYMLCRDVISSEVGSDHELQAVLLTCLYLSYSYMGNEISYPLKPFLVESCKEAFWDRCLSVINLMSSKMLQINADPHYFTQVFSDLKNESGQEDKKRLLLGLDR

## 2-[2-(1, 2-dimethyl-1H-indol-3-yl)-2-oxo-acetylamino]-benzamide [Compound F12016]
PPARγ Y473A
  EC50: 5.21 µM
PPARγ Y473A; activation relative to rosiglitazone (RGZ)
  PPARγ Y473A (RGZ %): 29.12%
LXRα
  transactivation of LXRα: no effects
PPARα
  transactivation of PPARα: no effects
RXR
  transactivation of RXR: no effects
3T3-L1 preadipocytes; 6 days of stimulation
  intracellular triglyceride (TG) content: significantly reduced TG accumulation compared with rosiglitazone
3T3-L1 preadipocytes; F12016 30 μM vs 10 μM
  TG content of differentiating adipocytes at 30 μM compared with 10 μM: significantly less than that of 10 μM
3T3-L1 preadipocytes; RGZ 0.1, 1, 10 μM, F12016 1, 10, 30 μM
  lipid accumulation / intracellular lipid droplets (Oil red O staining): significantly reduced potency to form intracellular lipid droplets
3T3-L1 preadipocytes; supplementary Figure 2
  lipid droplet size, F12016 vs rosiglitazone: no significant difference
[1]
  AdipQ mRNA expression: increased AdipQ mRNA expression
  mRNA levels of 11β-HSD1: similarly decreased the mRNA levels
  transcription of Pdk4: decreased transcription
[1]; both compounds to a similar extent
  expression of fatty acid synthase (Fasn): upregulated expression
[1]; compared with rosiglitazone
  expression of adipogenesis-related genes (CEBP/α, PEPCK, FABP4, CD36, Gyk, Elvol3, Cox7a1): induced much less expression
  induction of lipoprotein lipase (LPL): less than that induced by rosiglitazone
[2]
  phosphorylation of CDK5 substrate Rb protein: no effect
PPARγ LBD mutants
  activation of R288A, L340A and S342A mutants: reduced the ability of F12016 to activate PPARγ
  activation of S289A, H323A, H449A and Y473A mutants: almost the same activity as the wild-type PPARγ LBD

— paper PMC4381330, “Identification of a novel selective agonist of PPARγ with no promotion of adipogenesis and less inhibition of osteoblastogenesis” (Scientific Reports, 2015)
